Measurements published in ChEMBL document CHEMBL1201862, “PubChem BioAssay data set” (2004).
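Protocol summary: plate cells (96-well), add compound at 5 concentrations, incubate 48 h, interpolate endpoints linearly. GI50 is the concentration that inhibits growth by half.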 Activity calls are given as the source filed them. No stated cut-off is given here; in the data, active = GI50 up to about 1.1 µM and inactive = higher.

Experiments:
Experiment in all cases: growth of human tumour cells (NCI), 48 h
RPMI-8226 = tested on: RPMI-8226
MDA-MB-231 = tested on: MDA-MB-231
EKVX = tested on: EKVX
NCI-H226 = tested on: NCI-H226
K562 = tested on: K562
LOX IMVI = tested on: LOX IMVI
OVCAR-5 = tested on: OVCAR-5
SK-MEL-2 = tested on: SK-MEL-2
DU-145 = tested on: DU-145
PC-3 = tested on: PC-3
MDA-MB-435 = tested on: MDA-MB-435
OVCAR-3 = tested on: OVCAR-3
HCC 2998 = tested on: HCC 2998
SK-MEL-5 = tested on: SK-MEL-5
MCF7 = tested on: MCF7
OVCAR-8 = tested on: OVCAR-8
A549 = tested on: A549
T47D = tested on: T47D
ACHN = tested on: ACHN
HCT-116 = tested on: HCT-116
NCI-H522 = tested on: NCI-H522
SN12C = tested on: SN12C
M14 = tested on: M14
OVCAR-4 = tested on: OVCAR-4
BT-549 = tested on: BT-549
Hs-578T = tested on: Hs-578T
SF-268 = tested on: SF-268
SF-539 = tested on: SF-539
NCI/ADR-RES = tested on: NCI/ADR-RES
CAKI-1 = tested on: CAKI-1
COLO 205 = tested on: COLO 205
HOP-62 = tested on: HOP-62
HT-29 = tested on: HT-29
SK-MEL-28 = tested on: SK-MEL-28
MOLT-4 = tested on: MOLT-4
U-251 = tested on: U-251
SNB-19 = tested on: SNB-19
Malme-3M = tested on: Malme-3M
MDA-N = tested on: MDA-N
UACC-62 = tested on: UACC-62
KM12 = tested on: KM12
HCT-15 = tested on: HCT-15
RXF 393 = tested on: RXF 393
A498 = tested on: A498
UACC-257 = tested on: UACC-257
SK-OV-3 = tested on: SK-OV-3
NCI-H23 = tested on: NCI-H23
786-0 = tested on: 786-0
SF-295 = tested on: SF-295
NCI-H460 = tested on: NCI-H460
UO-31 = tested on: UO-31
IGROV-1 = tested on: IGROV-1
HOP-92 = tested on: HOP-92
SNB-75 = tested on: SNB-75
TK-10 = tested on: TK-10
SW-620 = tested on: SW-620
HL-60 = tested on: HL-60
SR = tested on: SR
CCRF-CEM = tested on: CCRF-CEM

Structure (SMILES): O=C(/C=C/c1ccc(Cl)cc1)Oc1ccc(C=C2CCC/C(=C\c3ccc(OC(=O)/C=C/c4ccc(Cl)cc4)cc3)C2=O)cc1
- GI50 (RPMI-8226): > 45.9 µM (inactive)
- GI50 (MDA-MB-231): > 100 µM (inactive)
- GI50 (EKVX): > 100 µM (inactive)
- GI50 (NCI-H226): > 100 µM (inactive)
- GI50 (K562): > 100 µM (inactive)
- GI50 (LOX IMVI): > 100 µM (inactive)
- GI50 (OVCAR-5): > 100 µM (inactive)
- GI50 (SK-MEL-2): > 100 µM (inactive)
- GI50 (DU-145): > 100 µM (inactive)
- GI50 (PC-3): > 100 µM (inactive)
- GI50 (MDA-MB-435): > 100 µM (inactive)
- GI50 (OVCAR-3): > 100 µM (inactive)
- GI50 (HCC 2998): > 100 µM (inactive)
- GI50 (SK-MEL-5): > 100 µM (inactive)
- GI50 (MCF7): > 100 µM (inactive)
- GI50 (OVCAR-8): > 100 µM (inactive)
- GI50 (A549): > 100 µM (inactive)
- GI50 (T47D): > 100 µM (inactive)
- GI50 (ACHN): > 100 µM (inactive)
- GI50 (HCT-116): > 100 µM (inactive)
- GI50 (NCI-H522): > 100 µM (inactive)
- GI50 (SN12C): > 100 µM (inactive)
- GI50 (M14): > 100 µM (inactive)
- GI50 (OVCAR-4): > 100 µM (inactive)
- GI50 (BT-549): > 100 µM (inactive)
- GI50 (Hs-578T): > 100 µM (inactive)
- GI50 (SF-268): > 100 µM (inactive)
- GI50 (SF-539): > 100 µM (inactive)
- GI50 (NCI/ADR-RES): > 100 µM (inactive)
- GI50 (CAKI-1): > 100 µM (inactive)
- GI50 (COLO 205): > 100 µM (inactive)
- GI50 (HOP-62): > 100 µM (inactive)
- GI50 (HT-29): > 100 µM (inactive)
- GI50 (SK-MEL-28): > 100 µM (inactive)
- GI50 (MOLT-4): > 100 µM (inactive)
- GI50 (U-251): > 100 µM (inactive)
- GI50 (SNB-19): > 100 µM (inactive)
- GI50 (Malme-3M): > 100 µM (inactive)
- GI50 (MDA-N): > 100 µM (inactive)
- GI50 (UACC-62): > 100 µM (inactive)
- GI50 (KM12): > 100 µM (inactive)
- GI50 (HCT-15): > 100 µM
- GI50 (RXF 393): > 100 µM (inactive)
- GI50 (A498): > 100 µM (inactive)
- GI50 (UACC-257): > 100 µM (inactive)
- GI50 (SK-OV-3): > 100 µM (inactive)
- GI50 (NCI-H23): > 100 µM (inactive)
- GI50 (786-0): > 100 µM (inactive)
- GI50 (SF-295): > 100 µM (inactive)
- GI50 (NCI-H460): > 100 µM (inactive)
- GI50 (UO-31): > 100 µM (inactive)
- GI50 (IGROV-1): > 100 µM (inactive)
- GI50 (HOP-92): > 100 µM (inactive)
- GI50 (SNB-75): > 79.1 µM (inactive)
- GI50 (TK-10): > 100 µM (inactive)
- GI50 (SW-620): > 100 µM (inactive)

Structure (SMILES): C[C@@H]1OC(=O)C[C@H]2CC(=O)N(CCC3CN(C(=O)OCc4ccccc4)c4ccccc43)C[C@@H]21 (some centres not stated)
- GI50 (RPMI-8226): > 100 µM (inactive)
- GI50 (MDA-MB-231): > 100 µM (inactive)
- GI50 (EKVX): > 100 µM (inactive)
- GI50 (K562): > 100 µM (inactive)
- GI50 (OVCAR-5): > 100 µM (inactive)
- GI50 (SK-MEL-2): > 100 µM (inactive)
- GI50 (DU-145): > 100 µM (inactive)
- GI50 (PC-3): > 100 µM (inactive)
- GI50 (MDA-MB-435): > 100 µM (inactive)
- GI50 (OVCAR-3): > 100 µM (inactive)
- GI50 (HCC 2998): > 100 µM (inactive)
- GI50 (SK-MEL-5): > 100 µM (inactive)
- GI50 (MCF7): > 100 µM (inactive)
- GI50 (OVCAR-8): > 100 µM (inactive)
- GI50 (A549): > 100 µM (inactive)
- GI50 (T47D): > 100 µM (inactive)
- GI50 (ACHN): > 100 µM (inactive)
- GI50 (HCT-116): > 100 µM (inactive)
- GI50 (NCI-H522): > 100 µM (inactive)
- GI50 (M14): > 100 µM (inactive)
- GI50 (OVCAR-4): > 100 µM (inactive)
- GI50 (BT-549): > 100 µM (inactive)
- GI50 (Hs-578T): > 100 µM (inactive)
- GI50 (SF-268): > 100 µM (inactive)
- GI50 (NCI/ADR-RES): > 100 µM (inactive)
- GI50 (CAKI-1): > 100 µM (inactive)
- GI50 (COLO 205): > 100 µM (inactive)
- GI50 (HOP-62): > 100 µM (inactive)
- GI50 (HT-29): > 100 µM (inactive)
- GI50 (SK-MEL-28): > 100 µM (inactive)
- GI50 (MOLT-4): > 100 µM (inactive)
- GI50 (U-251): > 100 µM (inactive)
- GI50 (SNB-19): > 100 µM (inactive)
- GI50 (Malme-3M): > 100 µM (inactive)
- GI50 (MDA-N): > 100 µM (inactive)
- GI50 (UACC-62): > 100 µM (inactive)
- GI50 (KM12): > 100 µM (inactive)
- GI50 (HCT-15): > 100 µM
- GI50 (RXF 393): > 100 µM (inactive)
- GI50 (A498): > 100 µM (inactive)
- GI50 (UACC-257): > 100 µM (inactive)
- GI50 (SK-OV-3): > 100 µM (inactive)
- GI50 (NCI-H23): > 100 µM (inactive)
- GI50 (786-0): > 100 µM (inactive)
- GI50 (SF-295): > 100 µM (inactive)
- GI50 (NCI-H460): > 100 µM (inactive)
- GI50 (UO-31): > 100 µM (inactive)
- GI50 (IGROV-1): > 100 µM (inactive)
- GI50 (HOP-92): > 100 µM (inactive)
- GI50 (SNB-75): > 100 µM (inactive)
- GI50 (TK-10): > 100 µM (inactive)
- GI50 (SW-620): > 100 µM (inactive)

Structure (SMILES): Nc1cc(CO)cc(Nc2nc3ccc(Cl)cc3c3[nH]c4ccccc4c23)c1
- GI50 (RPMI-8226): 2.96 µM (inactive)
- GI50 (MDA-MB-231): 2.55 µM (inactive)
- GI50 (EKVX): 1.52 µM (inactive)
- GI50 (K562): 4.67 µM (inactive)
- GI50 (HL-60): 21.7 µM (inactive)
- GI50 (OVCAR-5): 3.85 µM (inactive)
- GI50 (SK-MEL-2): 4.27 µM (inactive)
- GI50 (DU-145): 3.65 µM (inactive)
- GI50 (PC-3): 4.92 µM (inactive)
- GI50 (MDA-MB-435): 3.85 µM (inactive)
- GI50 (MCF7): 0.67 µM (active)
- GI50 (OVCAR-8): 4.28 µM (inactive)
- GI50 (A549): 3.2 µM (inactive)
- GI50 (T47D): 3.74 µM (inactive)
- GI50 (ACHN): 3.17 µM (inactive)
- GI50 (HCT-116): 3.34 µM (inactive)
- GI50 (NCI-H522): 2.79 µM (inactive)
- GI50 (SN12C): 2.89 µM (inactive)
- GI50 (M14): 4.98 µM (inactive)
- GI50 (BT-549): 10.9 µM (inactive)
- GI50 (Hs-578T): 5.43 µM (inactive)
- GI50 (SF-268): 2.86 µM (inactive)
- GI50 (SF-539): 3.34 µM (inactive)
- GI50 (NCI/ADR-RES): 8.45 µM (inactive)
- GI50 (CAKI-1): 2.69 µM (inactive)
- GI50 (COLO 205): 2.29 µM (inactive)
- GI50 (HOP-62): 7.19 µM (inactive)
- GI50 (SR): 2.16 µM (inactive)
- GI50 (HT-29): 3.64 µM (inactive)
- GI50 (CCRF-CEM): 4.79 µM (inactive)
- GI50 (MOLT-4): 4.2 µM (inactive)
- GI50 (U-251): 3.05 µM (inactive)
- GI50 (SNB-19): 4.32 µM (inactive)
- GI50 (Malme-3M): 5.27 µM (inactive)
- GI50 (MDA-N): 6.65 µM (inactive)
- GI50 (UACC-62): 1.85 µM (inactive)
- GI50 (KM12): 4.98 µM (inactive)
- GI50 (HCT-15): 3.92 µM
- GI50 (UACC-257): 10.7 µM (inactive)
- GI50 (SK-OV-3): 3.24 µM (inactive)
- GI50 (NCI-H23): 6.28 µM (inactive)
- GI50 (786-0): 1.98 µM (inactive)
- GI50 (SF-295): 3.56 µM (inactive)
- GI50 (NCI-H460): 2.2 µM (inactive)
- GI50 (UO-31): 2.9 µM (inactive)
- GI50 (IGROV-1): 1.54 µM (inactive)
- GI50 (HOP-92): 2.43 µM (inactive)
- GI50 (TK-10): 6.05 µM (inactive)
- GI50 (SW-620): 4.44 µM (inactive)
